Measurements from US20080124274A1, “Compositions and methods for detecting and treating tumors containing acidic areas” (priority 2006, published 2008).
Several values for one entry are separate records, joined by “and”; a condition that tells them apart may be missing. Equal entries are not always repeated. Values belong to the compound of their own block, whether it stands above or below them.

Experiments:
[1] = urine rendered basic; cited from earlier work
[2] = system: acidic areas of tumors; details: without corresponding reduction of pH in normal tissues; cited from earlier work
[3] = Titration of the sodium salt with HCl in aqueous solution
Experimental: Typically new structures that may be suitable as advanced pH-switch components are first assessed for their pKa value in normal saline. This entails preparing the sodium salt form of the structure and dissolving it at a concentration of 20 milliMolar in 15 ml of 0.15 Molar NaCl (deareated to remove CO2). […] A plot of pH versus volume of added HCl affords the effective pKa value. It is also desirable to carry out this same titration in methanol/water (1:1 by vol) in order to get an estimate of the pKa value independent of insolubility effects.

[4] = system: tumors; details: tumor-bearing mice; reduction of about 0.3 pH units in the tumors; cited from earlier work

Compound: CC(=O)Nc1nnc(S(N)(=O)=O)s1 [Acetazolamide]
pH of the urine [1]: ≥ 7.4

Compound: glucose and meta-iodobenzylguanidine
reduction of the pH in acidic areas of tumors [2]: ≤ 0.7 pH unit

minimum of the first derivative of the titration curve (pH) ([3]; sodium salt titrated in aqueous solution): ~4.0 and ~5.6
Compound: CCC[N+]1([O-])CCC(C(=O)O)CC1 (stereo not drawn) [structure iii in FIG. 16b, N-oxide of N-propylisonipocotic acid]

Compound: O=C(O)CCCc1ccc(N(CCCl)CCCl)cc1 [Chlorambucil]
improvement in tumor growth delay [4]: 1.7 fold

Compound: CN(C)C(=O)C=CC(=O)O [FIG. 14b]
mid-point of the transition between salt and acid (pKa value) ([3]; sodium salt titrated with HCl in aqueous solution): below 3.0

Compound: N=C(N)NCc1cccc([131I])c1 [meta-iodobenzylguanidine, reference compound]
reduction of the pH in acidic areas of tumors [2]: further reduced
